Values quoted from earlier work, collected in patent US20100322961A1, “Intranasal Drug Delivery System” (priority 2007, published 2010).

Settings: pure substance; background statement

COc1cc(CNC(=O)CCCC/C=C/C(C)C)ccc1O [capsaicin]
pungency (Scoville heat units): 15,000,000-16,000,000 Scoville units
